PMC10560236, “A protein kinase C α and β inhibitor blunts hyperphagia to halt renal function decline and reduces adiposity in a rat model of obesity-driven type 2 diabetes” (Scientific Reports, 2023)

Key:
[1] = tested on: ZSF1 lean and SD rats; experiment: 7-day food consumption and body weight study, Cmpd 1 chow, ZSF1 lean and SD rats; type: in vivo, rat; details: 7 days
Text: (§1) To evaluate food consumption in different rat strains, cohorts of 10 male ZSF1 obese rats, 8 male ZSF1 lean littermate rats, and 10 age-matched male Sprague Dawley (SD) rats were divided into two groups and fed chow with or without 0.744 g/kg Cmpd 1 (Cmpd 1 chow) for 7 days.

[2] = biological target: T1, PKCζ (Homo sapiens, UniProt Q05513); experiment: Z'-Lyte recombinant enzyme assay, PKCζ; type: biochemical
T1 sequence (Q05513 1-592): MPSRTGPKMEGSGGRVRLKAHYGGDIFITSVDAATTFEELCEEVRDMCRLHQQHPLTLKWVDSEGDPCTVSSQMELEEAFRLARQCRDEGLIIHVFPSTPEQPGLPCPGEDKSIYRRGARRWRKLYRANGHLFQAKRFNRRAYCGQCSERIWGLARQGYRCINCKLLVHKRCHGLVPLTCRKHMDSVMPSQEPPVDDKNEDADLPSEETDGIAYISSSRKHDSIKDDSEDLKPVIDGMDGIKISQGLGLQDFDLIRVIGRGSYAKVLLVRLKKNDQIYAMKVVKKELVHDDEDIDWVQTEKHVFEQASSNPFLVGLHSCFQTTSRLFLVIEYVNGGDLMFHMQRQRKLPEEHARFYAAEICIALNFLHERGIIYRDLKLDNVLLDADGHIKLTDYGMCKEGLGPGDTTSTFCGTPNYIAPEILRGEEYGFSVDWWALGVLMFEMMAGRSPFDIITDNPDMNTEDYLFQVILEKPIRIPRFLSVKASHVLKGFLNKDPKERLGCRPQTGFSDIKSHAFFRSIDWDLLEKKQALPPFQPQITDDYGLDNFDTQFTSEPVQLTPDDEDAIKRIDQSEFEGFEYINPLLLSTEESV
Experimental: (§2) Half maximal inhibitory concentrations of Cmpd 1 were determined by Z’-Lyte biochemical assays (Life Technologies SelectScreen™ Kinase Profiling Services, Thermo Fisher Scientific). Kinome selectivity was determined at 1 μM Cmpd 1 concentration against a panel of 119 kinases. The original kinome tree in Fig. 1b was taken from Ref.[68].

[3] = tested on: ZSF1 obese rats; experiment: 7-day food consumption and body weight study, Cmpd 1 chow, ZSF1 obese rats; type: in vivo, rat; details: 7 days
Text: as §1

[4] = biological target: PKCδ (Homo sapiens, UniProt Q05655); experiment: Z'-Lyte recombinant enzyme assay, PKCδ; type: biochemical
Experimental: as §2

[5] = tested on: HEK293 cells overexpressing PKCβ2; experiment: PMA-induced IL-8 production in HEK293 cells over-expressing PKCβ2; type: cell-based; details: HEK293 over-expressing PKCβ2, 3 nM PMA, 4-h supernatants; read-out: IC50, inhibition of IL-8 production in response to PMA
Experimental: For the HEK293 cell-based assay, HEK293 cells engineered to over-express full-length PKCβ2 were stimulated with 3 nM PMA in DMEM media supplemented with 0.5% FBS. 4-h cell culture supernatants were analyzed for IL-8 by MSD (Rockville, MD).

PKCδ, sequence (Q05655 whole entry): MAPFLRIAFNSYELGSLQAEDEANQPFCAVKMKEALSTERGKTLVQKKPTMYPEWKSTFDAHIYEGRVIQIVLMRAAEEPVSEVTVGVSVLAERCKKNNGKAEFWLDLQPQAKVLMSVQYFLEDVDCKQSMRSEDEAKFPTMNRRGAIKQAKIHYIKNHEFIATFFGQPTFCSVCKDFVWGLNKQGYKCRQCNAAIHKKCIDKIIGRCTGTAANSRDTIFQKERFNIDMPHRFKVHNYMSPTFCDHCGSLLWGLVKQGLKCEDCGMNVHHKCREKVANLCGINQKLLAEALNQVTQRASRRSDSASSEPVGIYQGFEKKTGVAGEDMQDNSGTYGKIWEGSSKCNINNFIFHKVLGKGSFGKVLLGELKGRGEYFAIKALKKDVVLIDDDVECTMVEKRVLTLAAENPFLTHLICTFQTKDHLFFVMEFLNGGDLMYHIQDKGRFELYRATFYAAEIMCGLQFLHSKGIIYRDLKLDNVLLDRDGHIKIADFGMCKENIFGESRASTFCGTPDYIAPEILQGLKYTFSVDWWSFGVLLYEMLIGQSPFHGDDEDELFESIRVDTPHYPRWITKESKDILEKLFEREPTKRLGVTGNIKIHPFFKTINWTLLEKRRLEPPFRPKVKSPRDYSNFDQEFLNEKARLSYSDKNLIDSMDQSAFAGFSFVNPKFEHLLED

IC50 [2]: > 10 µM
IC50 [4]: 1550 nM
Compound: Cc1ncc(F)c(Nc2n[nH]c3c2CN(C(=O)N2C[C@@H](C)N(CC4CCOCC4)C[C@@H]2C)C3(C)C)n1 [Cmpd 1, 5-[(2S,5R)-2,5-dimethyl-4-(tetrahydro-2H-pyran-4-ylmethyl)piperazin-l-yl]carbonyl-N-(5-fluoro-2-methylpyrimidin-4-yl)-6,6-dimethyl-1,4,5,6-tetrahydropyrrolo[3,4-c]pyrazol-3-amine]
Body weight loss [1]: did not
Average food consumption [3]: 24 g/day
Body weight change [3]: lost weight
Reduction in food consumption versus no-drug chow [3]: 37%
IC50 [5]: 26 nM
